Results from patent US4962113A, “Pyridinium derivatives, their production and use” (Takeda Chemical Industries, Ltd, priority 1987, dated 1990).
Read-outs that look alike come from different tables or passages of the source.

Experiments:
[1] = tested on: platelet aggregation (PAF); test: Inhibitory action on PAF-induced rabbit platelet aggregation; format: cell-based; details: Oryctolagus cuniculus, read-out: inhibitory percentage (platelet aggregation); for inhibition at 3 µM: 3 × 10^-6 M; for inhibition at 0.3 µM: 3 × 10^-7 M; for inhibition at 0.03 µM: 3 × 10^-8 M
Method: Blood was collected directly from the hearts of male rabbits using a syringe containing, as an anticoagulant, 3.15% citric acid (one part to 9 parts of blood). The blood was subjected to centrifuge at 800 rpm for ten minutes at room temperature to obtain platelet rich plasma (PRP). The remaining blood was further subjected to centrifuge at 3000 rpm for ten minnutes to separate platelet poor plasma (PPP) as the supernatant. PRP was diluted with PPP, and the number of platelets was adjusted to about 500,000/ μl. This PRP(250 μl) was stirred for two minutes at 37° C., and there was added a test sample, and the mixture was stirred for further two minutes, followed by addition of PAF of a given concentration. Platelet aggregation was examined by means of a platelet-agglutometer (manufactured by Rika Denki). Platelet aggregation preventing action of the test sample was determined based on the maximum percent light transmission (maximum percent. agglutination).

[2] = tested on: PAF-induced bronchoconstriction; test: PAF inhibitory action in bronchoconstriction; format: in vivo, guinea pig (Hartley); details: oral, 30 mg/kg, one hour before PAF (0.3 μg/kg i.v.)
Method: Female and male Hartley guinea pigs weighing about 400 g were fixed on the dorsal position under anesthesia with an ethylcarbamate (1.5 g/kg, intraperitoneally). One leg of a cannula (4 legs) was inserted into the trachea, and two of the remaining three legs were connected to an artificial respirator (Harvard apparatus rodent respirator). The remaining one leg (side tube) was connected to a bronchospasm transducer 7020 (Ugobasile).
While the air volume per ventilation was adjusted to 5 to 7 ml and the air ventilation rate was controlled at 70 times/min., with a load pressure to the lung set at 10 cm H2 O, the overflown air volume was recorded on Rectigraph (Rectigraph-8S, San-ei Seiki Inc.) through a transducer. After 1 mg/kg of gallamine triethodide was given intravenously to the animals, histamine dihydrochloride (10 μg/kg) was applied intravenously to examine reaction of the animals. PAF(0.3 μg/kg) was administered intravenously, and, 30 sec. later, maximum bronchoconstriction was observed. Under these conditions, bronchoconstriction activity of the test samples was examined. The test sample was suspended in a 5% gum arabic solution, and given orally one hour before the administration of PAF. The compounds obtained in Production Examples 3 and 4 inhibited PAF-induced bronchoconstriction by oral administration (30 mg/kg).

Acute Toxicity Test = format: in vivo; details: oral, 1000 mg/kg, until after one week
Method: Male Jcl-ICR mice (5 wk) were used in groups of five individuals. The animals of the respective groups were orally administered with the compounds (227), (236) and (303) respectively produced in Production Examples 87, 90 and 109 at the dose of 1000 mg/kg.

PAF-induced hypotension = test: Inhibitory action on PAF-induced hypotension in rats; format: in vivo, rat (Sprague-Dawley); details: Rattus norvegicus, read-out: Inhibitory Rate (Lowering of Blood Pressure); for inhibition in vivo at 0.1 mg/kg / inhibition in vivo at 0.01 mg/kg / inhibition in vivo at 0.03 mg/kg: iv; for inhibition in vivo at 1 mg/kg / inhibition in vivo at 3 mg/kg: oral
Method: Sprague-Dawley male rats, each weighing about 250 g, were subjected to the experiment. The rats were cannulated on the side of femoral artery for measuring the blood pressure, and on the side of femoral vein for administering the drug. The blood pressure was measured through a pressure transducer and recorded. First, PAF (1 μg/kg) was administered intravenously (i.v.) to examine the extent of lowering of blood pressure. Then, the test samples were administered intravenously or orally. […]
The inhibitory action on PAF-induced hypotension (% inhibition) is indicated as the ratio of blood pressure-lowering degree (Δ mmHg) induced by PAF after administration of test samples relative to blood pressure-lowering degree (Δ mmHg) induced by PAF before administration of test samples.

Row | SMILES | inhibition at 3 µM [1] | inhibition at 0.3 µM [1] | inhibition at 0.03 µM [1] | inhibition of PAF-induced bronchoconstriction [2] | death of mice (Acute Toxicity Test) | inhibition in vivo at 1 mg/kg (PAF-induced hypotension; 1 hr.) | inhibition in vivo at 1 mg/kg (PAF-induced hypotension; 2 hr.) | inhibition in vivo at 1 mg/kg (PAF-induced hypotension; 4 hr.) | inhibition in vivo at 1 mg/kg (PAF-induced hypotension; 6 hr.) | inhibition in vivo at 1 mg/kg (PAF-induced hypotension; 8 hr.) | inhibition in vivo at 3 mg/kg (PAF-induced hypotension; 1 hr.) | inhibition in vivo at 3 mg/kg (PAF-induced hypotension; 2 hr.) | inhibition in vivo at 3 mg/kg (PAF-induced hypotension; 4 hr.) | inhibition in vivo at 3 mg/kg (PAF-induced hypotension; 6 hr.) | inhibition in vivo at 3 mg/kg (PAF-induced hypotension; 8 hr.) | further results
1 | CCCCCCCCCCCCOCCOCCOC(=O)NCCN(C(=O)c1cc(Br)c[n+](CC)c1)c1ccccc1 [Production Example 4, 5-bromo-3-[N-[2-[2-(2-dodecyloxyethoxy)ethoxycarbonyl]]aminoethyl-N-phenyl]carbamoyl-1-ethylpyridinium iodide] | 100% | 100% | 100% | 59.9% | – | – | – | – | – | – | – | – | – | – | – | –
2 | CCC[n+]1cc(Br)cc(C(=O)N(CCC(=O)NCCNS(=O)(=O)c2cccc3ccccc23)c2ccccc2)c1 [Production Example 109, 5-Bromo-3-[N-[2-[2-(1-naphthylsulfonamide)ethyl]carbamoyl]-ethyl-N-phenyl]carbamoyl-1-propylpyridinium chloride] | 100% | 100% | 26% | – | No death of mice was observed | 56% | 65% | 64% | 54% | 48% | 95% | 97% | 97% | 92% | 80% | inhibition in vivo at 0.1 mg/kg (PAF-induced hypotension; 1 hr.): 100%; inhibition in vivo at 0.1 mg/kg (PAF-induced hypotension; 2 hr.): 97%; inhibition in vivo at 0.1 mg/kg (PAF-induced hypotension; 4 hr.): 71%; inhibition in vivo at 0.1 mg/kg (PAF-induced hypotension; 6 hr.): 50%; inhibition in vivo at 0.1 mg/kg (PAF-induced hypotension; 8 hr.): 46%; inhibition in vivo at 0.1 mg/kg (PAF-induced hypotension; 5 min, i.v., 5 min.): 100%
3 | CCC[n+]1cc(Br)cc(C(=O)N(CCC(=O)NCCOC(=O)Nc2cccc3ccccc23)c2ccccc2)c1 [Production Example 90, 5-bromo-3-[N-[2-[2-(1-naphthylcarbamoyloxy)ethyl]carbamoyl]ethyl-N-phenyl]carbamoyl-1-propylpyridinium chloride] | 100% | 100% | 16% | – | No death of mice was observed | 69% | 68% | 78% | 71% | 60% | 96% | 99% | 94% | 87% | 81% | inhibition in vivo at 0.01 mg/kg (PAF-induced hypotension; 1 hr.): 58%; inhibition in vivo at 0.01 mg/kg (PAF-induced hypotension; 2 hr.): 36%; inhibition in vivo at 0.01 mg/kg (PAF-induced hypotension; 4 hr.): 17%; inhibition in vivo at 0.01 mg/kg (PAF-induced hypotension; 6 hr.): 10%; inhibition in vivo at 0.01 mg/kg (PAF-induced hypotension; 8 hr.): 1%; inhibition in vivo at 0.03 mg/kg (PAF-induced hypotension; 1 hr.): 83%; inhibition in vivo at 0.03 mg/kg (PAF-induced hypotension; 2 hr.): 64%; inhibition in vivo at 0.03 mg/kg (PAF-induced hypotension; 4 hr.): 51%; inhibition in vivo at 0.03 mg/kg (PAF-induced hypotension; 6 hr.): 36%; inhibition in vivo at 0.03 mg/kg (PAF-induced hypotension; 8 hr.): 23%; inhibition in vivo at 0.01 mg/kg (PAF-induced hypotension; 5 min, i.v., 5 min.): 69%; inhibition in vivo at 0.03 mg/kg (PAF-induced hypotension; 5 min, i.v., 5 min.): 100%
4 | CCCCCCCCCCCCCCCCCCNC(=O)OCC(COC(=O)NCCN(C(=O)c1cc(Br)c[n+](CC)c1)c1ccccc1)OC (stereo not drawn) [Production Example 3, 5-bromo-3-[N-[2-(2-methoxy-3-octadecylcarbamoyloxyproxycarbonyl)]aminoethyl-N-phenyl]carbamoyl-1-ethyl pyridinium iodide] | – | – | – | 64.9% | – | – | – | – | – | – | – | – | – | – | – | –
